Several values for one entry are separate records, joined by “and”; a condition that tells them apart may be missing. Equal values may be shown once.
Tests used:
4F2hc [1] = test: HAT heavy chain 4F2hc on large-monocyte fraction of LPS-stimulated human PBMC, peak value by FACScan (polyclonal antibody); type: cell-based
Method: (§1) In the same manner as in 1) to 5) of Experimental Example 1, to human peripheral blood mononuclear cells, the test compound (6-2) (final concentration: 10 nM) or the test compound (7-3) (final concentration: 100 nM) was added at the same time when LPS (final concentration: 80 μg/ml) was added, followed by 6-day culture. Further, in the same manner as above, using rabbit anti-human 4F2hc polyclonal antibodies (see Biol Pharm Bull 30:415-422, 2007) as a primary antibody, the peak value of HAT expressed on the fraction of large-macrophages (larger than monocyte macrophages) in human PBMC was measured by FACScan using a commercially available cell fix/cell membrane infiltration kit (trade name: BD Cytofix/Cytoperm™ Kit, catalog No. 554714, BD Biosciences).
(§2) As a control, the one with no test-compound addition was used, and as a rabbit anti-human rBAT (related to b^0,+-type amino acid transporter) polyclonal antibody, the one obtained by coupling a synthesized peptide composed of an amino-terminal of human rBAT (MAEDKSKRDSIEMSMKGC (SEQ ID NO: 2)) and a carboxyl-terminal of mouse b^0,+AT (BAT1) (CHLQMLEWPEKDPE (SEQ ID NO: 3)) to a carrier KLH (keyhole-limpet hemocyanin), and immunizing a rabbit with it.

rBAT = test: HAT heavy chain rBAT on large-monocyte fraction of LPS-stimulated human PBMC, peak value by FACScan; type: cell-based
Method: as §1, §2

4F2hc [2] = test: 4F2hc on large-cell fraction of interferon γ-stimulated THP-1, peak value by FACScan; type: cell-based, human
Method: The same procedures as in Experimental Example 2 were taken except the following conditions: human leukemia culture cell line THP-1 was used instead of the human peripheral blood mononuclear cells; the final addition concentration of the test compound (6-2) was set to 100 nM; fetal bovine serum was used instead of the human AB serum; and human recombinant interferon γ (PHP050, Serotec) (final concentration: 100 ng/ml) was used instead of LPS. Also, using rabbit anti-human 4F2hc polyclonal antibodies (see Biol Pharm Bull 30: 415-422, 2007) as the primary antibody, the peak value of HAT expressed on the fraction of large-cells in human leukemia culture cell strain THP-1, compared with those not stimulated with LPS, was measured. As a control, the one with no test-compound (DMSO alone) was used, and the rabbit anti-human rBAT polyclonal antibodies were obtained in the same manner as in Experimental Example 2.

[3] = test system: rat unilateral ureteral obstruction release model; test: Rat unilateral ureteral obstruction release model: glomerular and tubulointerstitial lesions, Asc-1+ cells; type: in vivo, SD rat;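 for Tubulointerstitial lesion: atrophy of tubules associated with dilatation of tubules (score): ± very light + light ++ moderate +++ high change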;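 for Tubulointerstitial lesion: fibrosis of interstitial tissue (score): ± very light + light ++ moderate +++ high change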;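 for Tubulointerstitial lesion: thickness of basement membrane (score): ± very light + light ++ moderate +++ high change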
Source text: An experimental model was produced in accordance with the method devised and established by Ishibashi (Michio Ishibasi et al., Japanese Journal of Nephrology 42: 248, 2000), using a 8 to 9-week-old male SD rat weighing about 280 g. […] On day 14 after obstruction, the obstruction was released, and the urinary tract was reconstructed using a cuff. That is, 14 days later, the ligated ureteral obstruction part was partially removed, and a 25 gauge polyethylene tube (made by Nippon Sherwood) as a cuff was inserted from the lower normal ureteral stump and placed in the lumen. Next, the cuff was placed also in the expanded upper ureter, and both parts were ligated for fixation with a 7-0 nylon suture to reconstruct the urinary tract. At the same time, the right kidney was removed. The weight was measured after obstruction release, and the blood was collected on days 2, 5, and 7 after release for serum creatinine determination. On day 7, the rat was sacrificed under anesthesia and the left obstruction release kidney was removed. The weight of the removed kidney was measured, and the kidney pathomorphological examination was performed.
The biological effects of the test compound were studied in vivo using the model obtained in the above procedure 1). The test compound in the form of bulk powder was dissolved in sterilized physiologic saline together with gum arabic, where the concentration of the gum arabic was adjusted to 5% and the concentration of the test compound was adjusted to 30 mg/ml. The amount of 30 mg/kg was subcutaneously administered every day. Daily administration was continued for 21 days during 14 days of obstruction and 7 days after obstruction release. For controlled comparison, the solvent of 5% gum arabic was administered alone.
On day 22 from the administration of the test compound, the rat was sacrificed under anesthesia, and the left obstruction release kidney was removed and neutral formalin fixed. The fixed renal tissue embedded in paraffin was sliced into 4-micrometer-thick pieces for examination.
The tissue section was observed under a microscope in order to count the number of glomeruli and the number of glomeruli having a lesion (expansion of a tubular pole associated with swollen Bowman's capsule epithelial cells or hypertrophy of a Bowman's capsule basal membrane) in the field of view, and the number of glomeruli having the lesion (referred to as “lesioned glomerulus”) per 50 glomeruli was calculated.
As for the effectiveness to improve of glomerular lesions, when the number of lesioned glomeruli per 50 glomeruli was reduced to less than or equal to half the average number of those of the control group, it was determined as improved.
An affinity-purified anti-rat Asc-1 polyclonal antibody (rabbit) was prepared as follows: that is, in order to prepare an anti-Asc-1 peptide polyclonal antibody (rabbit), an oligopeptide (PSPLPITDKPLKTQC (SEQ. ID NO: 4)) corresponding to amino acid residues of 517-530 of Asc-1 was synthesized (see J Biol Chem (2000); 275: 9690-9698), keyhole limpet hemocyanine was bound to the C-terminal cysteine as an adjuvant, and […] was immunized therewith. The serum was collected on days 7 and 14 from the immunization. The serum was concentrated by means of an adsorption-dissociation operation using an affinity column to which an oligopeptide corresponding to amino acid residues of 517-530 of Asc-1 was bound in order to obtain an affinity-purified antibody having a protein content of 0.5 mg/ml. As for immunopathological examination, paraffin rat […] diluted with PBS to the optimal concentration was used.
The immune tissue staining was performed based on the protocol of Ventana HX system bench mark (Ventana Japan K.K., Tokyo) including the automated immunostaining device manufactured by Ventana Japan K.K. After deparaffinization, the tissue section was heat-treated at 100° C. for 1 hour. […]

[4] = human PBMC + LPS, summary of Table 2
[5] = group average ± standard deviation
[6] = individual animal, 30 mg/kg s.c. daily for 21 days, 30 mg/kg
[7] = individual animal, points: ± 0.5, + 1, ++ 2, +++ 3

O=C1CCC(F)(C(=O)OCc2ccccc2)O1 (stereo not shown) [Compound (6-2)]
Change in HAT expressed on large-monocyte fraction of human PBMC (peak value by FACScan), 4F2hc (4F2hc [1]; human PBMC + LPS 80 μg/ml, 6-day culture, test compound 10 nM, solvent control 23): 10 | amount of 4F2hc in the heavy chain of HAT (in words) (4F2hc [1]; [4]): selectively decreased | Change in HAT expressed on large-monocyte fraction of human PBMC (peak value by FACScan), rBAT (rBAT; human PBMC + LPS 80 μg/ml, 6-day culture, test compound 10 nM, solvent control 37): 40 | amount of rBAT (in words) (rBAT; [4]): without any influence | Change in HAT expressed on large-cell fraction of THP-1 (peak value by FACScan), 4F2hc (4F2hc [2]; THP-1 + human recombinant interferon γ 100 ng/ml, test compound 100 nM, solvent control 16): 10 | amount of 4F2hc in the heavy chain of HAT (in words) (4F2hc [2]; THP-1 + interferon γ, summary of Table 4): selectively decreased | Glomerular lesion: number of lesioned glomeruli per 50 glomeruli, expansion of tubular pole associated with swollen Bowman's capsule epithelial cells [3, 5]: 3 ± 2 per 50 glomeruli | Glomerular lesion: number of lesioned glomeruli per 50 glomeruli, hypertrophy of Bowman's capsule basal membrane [3, 5]: 7 ± 2 per 50 glomeruli | Number of Asc-1+ cells per 50 glomeruli [3, 5]: 8.01 ± 1.96 per 50 glomeruli | Tubulointerstitial lesion: atrophy of tubules associated with dilatation of tubules (score) [3, 5]: 0.90 ± 0.3 | Tubulointerstitial lesion: fibrosis of interstitial tissue (score) [3, 5]: 1.5 ± 0.6 | Tubulointerstitial lesion: thickness of basement membrane (score) [3, 5]: 1.5 ± 0.6 | Tubulointerstitial lesion: total score [3, 5]: 3.9 ± 1.0 | Glomerular lesion: number of lesioned glomeruli per 50 glomeruli, expansion of tubular pole associated with swollen Bowman's capsule epithelial cells [3, 6]: 2 per 50 glomeruli (2×) and 5 per 50 glomeruli and 1 per 50 glomeruli | Glomerular lesion: number of lesioned glomeruli per 50 glomeruli, hypertrophy of Bowman's capsule basal membrane [3, 6]: 6 per 50 glomeruli and 9 per 50 glomeruli and 5 per 50 glomeruli and 8 per 50 glomeruli | Number of Asc-1+ cells per 50 glomeruli [3, 6]: 9.40 per 50 glomeruli and 9.05 per 50 glomeruli and 5.12 per 50 glomeruli and 8.47 per 50 glomeruli | Improvement of glomerular lesion ([3]; individual animal, Yes = lesioned glomeruli per 50 glomeruli reduced to less than or equal to half the control average): Yes (3×) and No | Improvement of tubulointerstitial lesion ([3]; individual animal, Yes = reduced to less than or equal to half the control average): No | Tubulointerstitial lesion: atrophy of tubules associated with dilatation of tubules (score) [3, 7]: 1 (3×) and 0.5 | Tubulointerstitial lesion: fibrosis of interstitial tissue (score) [3, 7]: 1 (2×) and 2 (2×) | Tubulointerstitial lesion: thickness of basement membrane (score) [3, 7]: 1 (2×) and 2 (2×) | Tubulointerstitial lesion: total score ([3]; individual animal, sum of the three scores): 3 (2×) and 4.5 and 5 | glomerular lesion (in words) ([3]; summary of Table 5): selectively reduced | uriniferous tubule lesion (in words) ([3]; summary of Table 5): not reduced | Asc-1 positive cells in the glomeruli (in words) ([3]; versus control group): increased more significantly than in the control group

— US20090041719A1, “Method for screening therapeutic agent for glomerular disorder” (priority 2006, published 2009)
